The text below walks through data of patent US20040067991A1, “Tetrahydrobenzothiazole analogues as neuroprotective agents” (priority 2003, published 2004).

Entries after “also recorded” stand apart in the source; their conditions may differ.

One test deals with PC12 cells. Kind of test: Protection of PC12 cells against camptothecin-induced cell death (BCECF AM fluorescence). Format: cell-based. The conditions noted are these: for EC50: 6 h preincubation with compound, camptothecin 40 μM for 24 h, read-out: PD50, concentration of compounds required to induce 50% protection (PC50) of PC12 cells from camptothecin-induced cell-death; for protection of PC12 cells against camptothecin-induced death (in words): compounds 100-400 nM, camptothecin 40 μM 24 h. The protocol:
The 2-amino-4,5,6,7-tetrahydrobenzothiazole hydrogen iodide, 1-(4-methylphenyl)-2-(4,5,6,7-tetrahydro-2-imino-3(2H)-benzothiazolyl)-ethanone hydrobromide, and analogues were tested for their ability to protect PC12 cells against the toxic agent, camptothecin. PC12 cells were cultured in RPMI1640 media containing 10% horse serum and 5% fetal calf serum (37° C., pH 7.4) until confluent. Thereafter, 2.2×10^4 cells per mL were added to each trough of a 96 well plate (approximately 6,270 cells per well 285 μL) and were left to grow for 12 h. The media then was removed and was replaced by media with and without the compounds to be tested, including precursor, PFTα, and numerous analogues (concentration 100-400 nM, prepared in DMSO to a final dilution of 0.4%, 8 wells per concentration). Following 6 h of incubation, camptothecin (40 μM) was added to 4 of each 8 wells, and the cells were incubated for a further 24 h. Cells then were gently washed twice with phosphate buffered saline (PBS: 0.1 M, 37° C., pH 7.4) and were incubated in PBS containing the live-cell indicator dye, 2′,7′-bis(2-carboxyethey)-5-6-carboxyfluorescein AM ester (BCECF AM: 5 μM) (Molecular Probes, CA), for 45 min in minimal light. This fluorescent dye was taken up and retained by live cells. Finally, the cells were washed twice in PBS and their fluorescence then was quantified (excitation: 490 nm, emission: 535 nm, Perkin Elmer HTS 7000).
PC12 cell survival was also assessed. One hundred percent cell survival was determined from cells incubated in the absence of both any compound and camptothecin. […] Compound-induced toxicity was assessed by comparing cells treated with compound at various concentrations in the absence of camptothecin with cells incubated in the absence of both compound and camptothecin. […] Compound-induced cellular protection was assessed by comparing cells incubated with camptothecin with cells incubated with camptothecin in the presence of compound, in a concentration-dependent manner.

Test [1] concerns C57BL/6 mice given MPTP. Kind of test: MPTP model: striatal dopamine, serotonin and metabolites by HPLC. Format: in vivo, mouse. The conditions noted are these: striatal tissue; for 5-HIAA / 5-HT / DOPAC / Dopamine / HVA: compound 2 mg/kg + MPTP, mean±SE, 4-6 mice/group. How it is done: (§1) The ability of PFTα (5) and compounds 5× (Z-1-117) and 13 (Z-1-143) to protect dopaminergic neurons against MPTP toxicity was tested. MPTP (20 mg/kg) was administered intraperitoneally to 2 month-old male C57BL/6 mice by four injections at two hour intervals to induce dopaminergic cell death.
In a separate experiment, levels of striatal dopamine, dopamine metabolites, serotonin, and serotonin metabolites were measured using HPLC analysis. Specifically, mice were euthanatized, and striatal tissue samples were removed and levels of dopamine, DOPAC, HVA, 5-HT, 5-HIAA were quantified. […] There was no significant difference in levels of serotonin or serotonin metabolites.

The subject of test [2] is C57BL/6 mice given MPTP. Description: MPTP-induced Parkinson's disease model: rotarod behavioral tests. The format is in vivo, mouse. The following applies: 2 mg/kg i.p. 30 min before first and 30 min after last MPTP injection; day 7. The protocol: as §1
At seven days, behavioral tests were performed using the rotarod test equipment. The number of falls and running times were measured.

Test [3] relates to striatal tyrosine hydroxylase (TH). Description: MPTP model: striatal tyrosine hydroxylase levels by Western blot densitometry. The format is in vivo, mouse. The following applies: 2 mg/kg, 7 days later, hydrobromide. How it is done: as §1
Levels of tyrosine hydroxylase (TH), the enzyme that catalyzes the rate-limiting step in dopamine synthesis, also were assessed in the striatum using Western blot analysis.

Test [4] concerns substantia nigra dopaminergic neurons. Kind of test: MPTP model: TH-immunostained cells in the substantia nigra. The following applies: 2 mg/kg, seven days after treatment, 4 mice/group. Format: in vivo, mouse. How it is done: as §1
In yet another experiment, the number of TH-immunostained cells in the substantia nigra was assessed in four animals seven days after treatment. Mice were euthanized and perfused by 4% paraformadehyde transcardially. Brain sections were cut and immunostained with an antibody against TH. PFT-A and compound 5× attenuated MPTP-induced loss of substantia nigra dopaniinergic neurons.

A further test relates to rat hippocampal neurons. Kind of test: Neuronal survival assay in cultured hippocampal neurons treated with camptothecin or etoposide. Format: cell-based. How it is done:
2-amino-4,5,6,7-tetrahydrobenzothiazole hydrogen and 1-(4-methylphenyl)-2-(4,5,6,7-tetrahydro-2-imino-3(2H)-benzothiazolyl)-ethanone hydrobromide and their analogues were assessed for their ability to protect rat hippocampal cells in culture from camptothecin ([…]).
Dissociated hippocampal cell cultures were established from embryonic day 18 Sprague-Dawley rats (Harlan, Inc.) as described previously. […] 77:220-28. Cells were grown in polyethyleneimine-coated plastic dishes or 22 m^2 glass coverslips, and incubated in Neurobasal medium containing B27 supplements, 2 mM L-glutamine, 25 mg/ml gentamycin, 1 mM Hepes (Gibco BRL) and 0.001% gentamicin sulfate. All experiments were performed using 9-10 day-old cultures. Camptothecin and etoposide (Signia) were prepared as 500× stocks in DMSO. Neuron survival was quantified by established methods. […] Briefly, viable neurons in premarked fields (10× objective) were counted before experimental treatment and at specified time points thereafter. Neurons with intact neurites of uniform diameter and soma with a smooth round appearance were considered viable. In contrast neurons with fragmented neurites and vacuolated soma were considered non-viable.

Turning to `Br.Cc1ccc(C(=O)Cn2c3c(sc2=N)CC(C)CC3)cc1` (centres unmarked) [Compound 5×, 1-(4-methylphenyl)-2-(4,5,6,7-tertahydro-2-imino-6-methyl-3(2H)-benzothiazolyl)-ethanone hydrobromide], in the test with PC12 cells, the EC50 stood at 306 nM and the “protection of PC12 cells against camptothecin-induced death (in words)” value is given as “highly potent”. For the same compound, in the test with C57BL/6 mice given MPTP [1] (2 mg/kg), the “levels of dopamine, DOPAC, and HVA as compared to the MPTP-induced reduction (in words)” value was “statistically significant increase”. Further, in the test on C57BL/6 mice given MPTP [1], the 5-HIAA came out at 246 ± 15 pg/mg tissue weight, the 5-HT was determined as 424 ± 12 pg/mg tissue weight, the DOPAC is listed as 102 pg/mg tissue weight and the Dopamine is 1833 pg/mg tissue weight. The HVA in the test with C57BL/6 mice given MPTP [1] was found to be 302 ± 20 pg/mg tissue weight. Further, in the test on C57BL/6 mice given MPTP [2], the “number of falls on rotarod (in words)” value is reported as “statistically significant decease” and the “running time on rotarod (in words)” value is “statistically significant increase”. Besides, the “MPTP-induced loss of striatal tyrosine hydroxylase (in words)” value in test [3] was “attenuate; also recorded: reverse the MPTP reduction in TH levels”. In addition, the “MPTP-induced loss of substantia nigra dopaminergic neurons, TH-positive cells (in words)” value in test [4] is given as “attenuated”. For the same compound, in the test on rat hippocampal neurons (100 nM, added 1 h before camptothecin 5 μM), the “neuroprotection of hippocampal neurons against camptothecin (in words)” value was “could not protect neurons effectively”. Besides, the “neuroprotection of hippocampal neurons against etoposide (in words)” value in the test on rat hippocampal neurons (added 1 h before etoposide 2.5 μM) is on record as “activity comparable to PFTα”. The “protection of primary hippocampal cells against death induced by camptothecin and etoposide (in words)” value in the test with rat hippocampal neurons (camptothecin 5 μM, etoposide 2.5 μM, 24 h) is listed as “highly potency”. Further, in the test with rat hippocampal neurons (pretreated with 100 nM of analogue, then camptothecin (5 μM), 24 h), the neuronal survival stood at 29%.
For the compound `Br.N=c1sc2c(n1CC(=O)c1ccccc1)CCCC2` [Compound 13, 1-phenyl-2-(4,5,6,7-tertahydro-2-imino-3(2H)-benzothiazolyl)-ethanone hydrobromide], in the test on PC12 cells, the EC50 stood at 169 nM. Further, in the test with PC12 cells (hydrobromide), the “protection of PC12 cells against camptothecin-induced death (in words)” value is recorded as “highly potent; also recorded: highly active in PC12 cells only”. Besides, in the test with C57BL/6 mice given MPTP [1], the 5-HIAA was determined as 223 ± 45 pg/mg tissue weight, the 5-HT worked out at 429 ± 42 pg/mg tissue weight, the DOPAC was found to be 10 ± 10 pg/mg tissue weight and the Dopamine was 440 pg/mg tissue weight. For the same compound, in the test on C57BL/6 mice given MPTP [1], the HVA was determined as 91 ± 58 pg/mg tissue weight.
